Results published in patent US11691984B2, “Compounds and methods for DCAF-mediated protein degradation” (The Scripps Research Institute, priority 2018, dated 2023).

Target: T1, ACAT1 (Homo sapiens, UniProt P24752)
T1 construct: endogenous in cells; host or cells: HEK293T
T1 sequence (P24752 34-427): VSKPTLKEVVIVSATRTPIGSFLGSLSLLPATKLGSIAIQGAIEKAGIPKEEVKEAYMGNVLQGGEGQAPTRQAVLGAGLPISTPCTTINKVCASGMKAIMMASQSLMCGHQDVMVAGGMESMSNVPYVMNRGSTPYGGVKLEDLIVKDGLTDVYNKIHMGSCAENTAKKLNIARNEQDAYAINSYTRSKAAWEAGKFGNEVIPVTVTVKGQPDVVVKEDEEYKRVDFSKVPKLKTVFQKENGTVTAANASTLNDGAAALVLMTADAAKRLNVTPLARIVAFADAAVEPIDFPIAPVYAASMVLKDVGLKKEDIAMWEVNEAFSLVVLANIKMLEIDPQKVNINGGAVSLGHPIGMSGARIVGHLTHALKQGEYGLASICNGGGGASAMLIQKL
Test: Proteome-wide SILAC MS protein abundance in HEK293T cells: ACAT1
Assay type: cell-based
Conditions: 24 hours
Description: HEK293T light and heavy SILAC cells were treated with DMSO and KB02-JQ1 (20 μM) or KB02-SLF (2 μM) for 24 hours, respectively. Light and heavy cells were collected and lysed in 1% NP-40 lysis buffer with complete protease inhibitor cocktail. Cells were vortexed and sonicated for 5 pulses (40%, 4). The supernatant was collected after centrifugation at 16,000 g for 10 min at 4° C. Protein concentration was determined by DC assay. 50 μg proteome from light and heavy samples were mixed, followed by methanol/chloroform precipitation. […] Next, the ratio of the peak areas under the light and heavy signals (signal-to-noise ratio>2.5) was calculated. […] In addition, peptides detected as ‘singletons,’ where only the heavy ion of a peptide pair was identified, but that cleared all other filtering parameters, were given a default assigned ratio of ‘20,’ which is defined as any measured ratio that is ≥20 and is the maximum ratio reported here.” The median SILAC ratios from quantified peptides were used as measures of protein abundance. The following quality filters were further applied to generate the plot: (1) proteins must have at least two quantified peptides; (2) proteins must be present in both replicates; (3) for each protein, the standard deviation of measured ratios of peptides must be <1.0.

Compound | ACAT1 abundance (MS-based proteomics) (KB02-JQ1 20 μM) | ACAT1 abundance (MS-based proteomics) (KB02-SLF 2 μM)
Cc1sc2c(c1C)C(c1ccc(Cl)cc1)=N[C@@H](CC(=O)NCCOCCOCCNC(=O)COc1ccc3c(c1)CCCN3C(=O)CCl)c1nnc(C)n1-2 [KB02-JQ1, (S)-2-((1-(2-chloroacetyl)-1,2,3,4-tetrahydroquinolin-6-yl)oxy)-N-(2-(2-(2-(2-(4-(4-chlorophenyl)-2,3,9-trimethyl-6H-thieno[3,2-f][1,2,4]triazolo[4,3-a][1,4]diazepin-6-yl)acetamido)ethoxy)ethoxy)ethyl)acetamide] | substantially decreased abundance | 
CCC(C)(C)C(=O)C(=O)N1CCCC[C@H]1C(=O)O[C@H](CCc1ccc(OC)c(OC)c1)c1cccc(NC(=O)CCOCCOCCNC(=O)COc2ccc3c(c2)CCCN3C(=O)CCl)c1 [KB02-SLF, (R)-1-(3-(3-(2-(2-(2-((1-(2-chloroacetyl)-1,2,3,4-tetrahydroquinolin-6-yl)oxy)acetamido)ethoxy)ethoxy)propanamido)phenyl)-3-(3,4-dimethoxyphenyl)propyl (S)-1-(3,3-dimethyl-2-oxopentanoyl)piperidine-2-carboxylate] |  | reductions in ACAT1
